Laboratory results as given in ChEMBL document CHEMBL5724914, “Linking interpersonal differences in gut microbiota composition and drug biotransformation activity” (2024).

assay: (§1) The drug is tested on Z-030 corresponding to mouse gut metagenome with ENA study accession number: PRJEB37062 and ENA sample accession number: ERS12561829 for biotransformation under anaerobic condition. The drug concentrations were measured over 9 timepoints collected between 0 and 24 hours of incubation by liquid-chromatography-coupled mass spectrometry (LC–MS); details: 2 µM
Also: call rule not given here.

SMILES | Bacterial Biotransformation
Nc1c2c(nc3ccccc13)CCCC2 [TACRINE] | Compound NOT metabolized
CC(Oc1c(Cl)cccc1Cl)C1=NCCN1 (stereo not given) [LOFEXIDINE] | Compound NOT metabolized
O=c1[nH]c2ccccc2n1C1CCN(CCCC(c2ccc(F)cc2)c2ccc(F)cc2)CC1 [PIMOZIDE] | Compound NOT metabolized
CN1CC(=O)N2[C@H](c3ccc4c(c3)OCO4)c3[nH]c4ccccc4c3C[C@@H]2C1=O | Compound NOT metabolized

assay: as §1, with “Z-028” for “Z-030”, “ERS12561827” for “ERS12561829”; details: 2 µM

SMILES | Bacterial Biotransformation
Nc1c2c(nc3ccccc13)CCCC2 [TACRINE] | Compound NOT metabolized
CC(Oc1c(Cl)cccc1Cl)C1=NCCN1 (stereo not given) [LOFEXIDINE] | Compound NOT metabolized
O=c1[nH]c2ccccc2n1C1CCN(CCCC(c2ccc(F)cc2)c2ccc(F)cc2)CC1 [PIMOZIDE] | Compound NOT metabolized
CN1CC(=O)N2[C@H](c3ccc4c(c3)OCO4)c3[nH]c4ccccc4c3C[C@@H]2C1=O | Compound NOT metabolized

assay: as §1, with “Z-027” for “Z-030”, “to” for “to mouse gut”, “ERS12561826” for “ERS12561829”; details: 2 µM

SMILES | Bacterial Biotransformation
Nc1c2c(nc3ccccc13)CCCC2 [TACRINE] | Compound NOT metabolized
CC(Oc1c(Cl)cccc1Cl)C1=NCCN1 (stereo not given) [LOFEXIDINE] | Compound NOT metabolized
O=c1[nH]c2ccccc2n1C1CCN(CCCC(c2ccc(F)cc2)c2ccc(F)cc2)CC1 [PIMOZIDE] | Compound NOT metabolized
CN1CC(=O)N2[C@H](c3ccc4c(c3)OCO4)c3[nH]c4ccccc4c3C[C@@H]2C1=O | Compound NOT metabolized

assay: as §1, with “Z-026” for “Z-030”, “to” for “to mouse gut”, “ERS12561825” for “ERS12561829”; details: 2 µM

SMILES | Bacterial Biotransformation
Nc1c2c(nc3ccccc13)CCCC2 [TACRINE] | Compound NOT metabolized
CC(Oc1c(Cl)cccc1Cl)C1=NCCN1 (stereo not given) [LOFEXIDINE] | Compound NOT metabolized
O=c1[nH]c2ccccc2n1C1CCN(CCCC(c2ccc(F)cc2)c2ccc(F)cc2)CC1 [PIMOZIDE] | Compound NOT metabolized
CN1CC(=O)N2[C@H](c3ccc4c(c3)OCO4)c3[nH]c4ccccc4c3C[C@@H]2C1=O | Compound NOT metabolized

assay: as §1, with “Z-024” for “Z-030”, “pig” for “mouse”, “ERS12561823” for “ERS12561829”; details: 2 µM

SMILES | Bacterial Biotransformation
Nc1c2c(nc3ccccc13)CCCC2 [TACRINE] | Compound NOT metabolized
CC(Oc1c(Cl)cccc1Cl)C1=NCCN1 (stereo not given) [LOFEXIDINE] | Compound NOT metabolized
O=c1[nH]c2ccccc2n1C1CCN(CCCC(c2ccc(F)cc2)c2ccc(F)cc2)CC1 [PIMOZIDE] | Compound metabolized
CN1CC(=O)N2[C@H](c3ccc4c(c3)OCO4)c3[nH]c4ccccc4c3C[C@@H]2C1=O | Compound metabolized

assay: as §1, with “Z-020” for “Z-030”, “rabbit” for “mouse”, “ERS12561819” for “ERS12561829”; details: 2 µM

SMILES | Bacterial Biotransformation
Nc1c2c(nc3ccccc13)CCCC2 [TACRINE] | Compound NOT metabolized
CC(Oc1c(Cl)cccc1Cl)C1=NCCN1 (stereo not given) [LOFEXIDINE] | Compound NOT metabolized
O=c1[nH]c2ccccc2n1C1CCN(CCCC(c2ccc(F)cc2)c2ccc(F)cc2)CC1 [PIMOZIDE] | Compound metabolized
CN1CC(=O)N2[C@H](c3ccc4c(c3)OCO4)c3[nH]c4ccccc4c3C[C@@H]2C1=O | Compound NOT metabolized

assay: as §1, with “Z-010” for “Z-030”, “to” for “to mouse gut”, “ERS12561810” for “ERS12561829”; details: 2 µM

SMILES | Bacterial Biotransformation
Nc1c2c(nc3ccccc13)CCCC2 [TACRINE] | Compound NOT metabolized
CC(Oc1c(Cl)cccc1Cl)C1=NCCN1 (stereo not given) [LOFEXIDINE] | Compound NOT metabolized
O=c1[nH]c2ccccc2n1C1CCN(CCCC(c2ccc(F)cc2)c2ccc(F)cc2)CC1 [PIMOZIDE] | Compound metabolized
CN1CC(=O)N2[C@H](c3ccc4c(c3)OCO4)c3[nH]c4ccccc4c3C[C@@H]2C1=O | Compound metabolized

assay: as §1, with “Z-004” for “Z-030”, “to” for “to mouse gut”, “ERS12561804” for “ERS12561829”; details: 2 µM

SMILES | Bacterial Biotransformation
Nc1c2c(nc3ccccc13)CCCC2 [TACRINE] | Compound NOT metabolized
CC(Oc1c(Cl)cccc1Cl)C1=NCCN1 (stereo not given) [LOFEXIDINE] | Compound NOT metabolized
O=c1[nH]c2ccccc2n1C1CCN(CCCC(c2ccc(F)cc2)c2ccc(F)cc2)CC1 [PIMOZIDE] | Compound NOT metabolized
CN1CC(=O)N2[C@H](c3ccc4c(c3)OCO4)c3[nH]c4ccccc4c3C[C@@H]2C1=O | Compound metabolized

assay: as §1, with “Z-002” for “Z-030”, “rabbit” for “mouse”, “ERS12561802” for “ERS12561829”; details: 2 µM

SMILES | Bacterial Biotransformation
Nc1c2c(nc3ccccc13)CCCC2 [TACRINE] | Compound metabolized
CC(Oc1c(Cl)cccc1Cl)C1=NCCN1 (stereo not given) [LOFEXIDINE] | Compound metabolized
O=c1[nH]c2ccccc2n1C1CCN(CCCC(c2ccc(F)cc2)c2ccc(F)cc2)CC1 [PIMOZIDE] | Compound NOT metabolized
CN1CC(=O)N2[C@H](c3ccc4c(c3)OCO4)c3[nH]c4ccccc4c3C[C@@H]2C1=O | Compound metabolized

assay: as §1, with “Z-001” for “Z-030”, “ERS12561801” for “ERS12561829”; details: 2 µM

SMILES | Bacterial Biotransformation
Nc1c2c(nc3ccccc13)CCCC2 [TACRINE] | Compound NOT metabolized
CC(Oc1c(Cl)cccc1Cl)C1=NCCN1 (stereo not given) [LOFEXIDINE] | Compound NOT metabolized
O=c1[nH]c2ccccc2n1C1CCN(CCCC(c2ccc(F)cc2)c2ccc(F)cc2)CC1 [PIMOZIDE] | Compound metabolized
CN1CC(=O)N2[C@H](c3ccc4c(c3)OCO4)c3[nH]c4ccccc4c3C[C@@H]2C1=O | Compound NOT metabolized

assay: as §1, with “WLS-370” for “Z-030”, “human” for “mouse”, “ERS12561793” for “ERS12561829”; details: 2 µM

SMILES | Bacterial Biotransformation
Nc1c2c(nc3ccccc13)CCCC2 [TACRINE] | Compound NOT metabolized
CC(Oc1c(Cl)cccc1Cl)C1=NCCN1 (stereo not given) [LOFEXIDINE] | Compound NOT metabolized
O=c1[nH]c2ccccc2n1C1CCN(CCCC(c2ccc(F)cc2)c2ccc(F)cc2)CC1 [PIMOZIDE] | Compound metabolized
CN1CC(=O)N2[C@H](c3ccc4c(c3)OCO4)c3[nH]c4ccccc4c3C[C@@H]2C1=O | Compound metabolized

assay: as §1, with “WLS-170” for “Z-030”, “human” for “mouse”, “ERS12561762” for “ERS12561829”; details: 2 µM

SMILES | Bacterial Biotransformation
Nc1c2c(nc3ccccc13)CCCC2 [TACRINE] | Compound metabolized
CC(Oc1c(Cl)cccc1Cl)C1=NCCN1 (stereo not given) [LOFEXIDINE] | Compound metabolized
O=c1[nH]c2ccccc2n1C1CCN(CCCC(c2ccc(F)cc2)c2ccc(F)cc2)CC1 [PIMOZIDE] | Compound metabolized
CN1CC(=O)N2[C@H](c3ccc4c(c3)OCO4)c3[nH]c4ccccc4c3C[C@@H]2C1=O | Compound metabolized

assay: as §1, with “WLS-090” for “Z-030”, “human” for “mouse”, “ERS12561753” for “ERS12561829”; details: 2 µM

SMILES | Bacterial Biotransformation
Nc1c2c(nc3ccccc13)CCCC2 [TACRINE] | Compound metabolized
CC(Oc1c(Cl)cccc1Cl)C1=NCCN1 (stereo not given) [LOFEXIDINE] | Compound metabolized
O=c1[nH]c2ccccc2n1C1CCN(CCCC(c2ccc(F)cc2)c2ccc(F)cc2)CC1 [PIMOZIDE] | Compound metabolized
CN1CC(=O)N2[C@H](c3ccc4c(c3)OCO4)c3[nH]c4ccccc4c3C[C@@H]2C1=O | Compound metabolized

details: human gut metagenome, 24 h, 2 µM

SMILES | Bacterial Biotransformation
Nc1c2c(nc3ccccc13)CCCC2 [TACRINE] | Compound NOT metabolized
CC(Oc1c(Cl)cccc1Cl)C1=NCCN1 (stereo not given) [LOFEXIDINE] | Compound NOT metabolized
O=c1[nH]c2ccccc2n1C1CCN(CCCC(c2ccc(F)cc2)c2ccc(F)cc2)CC1 [PIMOZIDE] | Compound metabolized
CN1CC(=O)N2[C@H](c3ccc4c(c3)OCO4)c3[nH]c4ccccc4c3C[C@@H]2C1=O | Compound metabolized

details: human gut metagenome, 24 h, 2 µM; remark: another data set of the same source

SMILES | Bacterial Biotransformation
Nc1c2c(nc3ccccc13)CCCC2 [TACRINE] | Compound metabolized
CC(Oc1c(Cl)cccc1Cl)C1=NCCN1 (stereo not given) [LOFEXIDINE] | Compound metabolized
O=c1[nH]c2ccccc2n1C1CCN(CCCC(c2ccc(F)cc2)c2ccc(F)cc2)CC1 [PIMOZIDE] | Compound metabolized
CN1CC(=O)N2[C@H](c3ccc4c(c3)OCO4)c3[nH]c4ccccc4c3C[C@@H]2C1=O | Compound metabolized

details: human gut metagenome, 24 h, 2 µM; remark: another data set of the same source

SMILES | Bacterial Biotransformation
Nc1c2c(nc3ccccc13)CCCC2 [TACRINE] | Compound NOT metabolized
CC(Oc1c(Cl)cccc1Cl)C1=NCCN1 (stereo not given) [LOFEXIDINE] | Compound metabolized
O=c1[nH]c2ccccc2n1C1CCN(CCCC(c2ccc(F)cc2)c2ccc(F)cc2)CC1 [PIMOZIDE] | Compound NOT metabolized
CN1CC(=O)N2[C@H](c3ccc4c(c3)OCO4)c3[nH]c4ccccc4c3C[C@@H]2C1=O | Compound NOT metabolized

details: human gut metagenome, 24 h, 2 µM; remark: another data set of the same source

SMILES | Bacterial Biotransformation
Nc1c2c(nc3ccccc13)CCCC2 [TACRINE] | Compound NOT metabolized
CC(Oc1c(Cl)cccc1Cl)C1=NCCN1 (stereo not given) [LOFEXIDINE] | Compound NOT metabolized
O=c1[nH]c2ccccc2n1C1CCN(CCCC(c2ccc(F)cc2)c2ccc(F)cc2)CC1 [PIMOZIDE] | Compound NOT metabolized
CN1CC(=O)N2[C@H](c3ccc4c(c3)OCO4)c3[nH]c4ccccc4c3C[C@@H]2C1=O | Compound metabolized

details: human gut metagenome, 24 h, 2 µM; remark: another data set of the same source

SMILES | Bacterial Biotransformation
Nc1c2c(nc3ccccc13)CCCC2 [TACRINE] | Compound NOT metabolized
CC(Oc1c(Cl)cccc1Cl)C1=NCCN1 (stereo not given) [LOFEXIDINE] | Compound NOT metabolized
O=c1[nH]c2ccccc2n1C1CCN(CCCC(c2ccc(F)cc2)c2ccc(F)cc2)CC1 [PIMOZIDE] | Compound metabolized
CN1CC(=O)N2[C@H](c3ccc4c(c3)OCO4)c3[nH]c4ccccc4c3C[C@@H]2C1=O | Compound metabolized

details: human gut metagenome, 24 h, 2 µM; remark: another data set of the same source

SMILES | Bacterial Biotransformation
Nc1c2c(nc3ccccc13)CCCC2 [TACRINE] | Compound metabolized
CC(Oc1c(Cl)cccc1Cl)C1=NCCN1 (stereo not given) [LOFEXIDINE] | Compound metabolized
O=c1[nH]c2ccccc2n1C1CCN(CCCC(c2ccc(F)cc2)c2ccc(F)cc2)CC1 [PIMOZIDE] | Compound metabolized
CN1CC(=O)N2[C@H](c3ccc4c(c3)OCO4)c3[nH]c4ccccc4c3C[C@@H]2C1=O | Compound metabolized

details: human gut metagenome, 24 h, 2 µM; remark: another data set of the same source

SMILES | Bacterial Biotransformation
Nc1c2c(nc3ccccc13)CCCC2 [TACRINE] | Compound metabolized
CC(Oc1c(Cl)cccc1Cl)C1=NCCN1 (stereo not given) [LOFEXIDINE] | Compound metabolized
O=c1[nH]c2ccccc2n1C1CCN(CCCC(c2ccc(F)cc2)c2ccc(F)cc2)CC1 [PIMOZIDE] | Compound metabolized
CN1CC(=O)N2[C@H](c3ccc4c(c3)OCO4)c3[nH]c4ccccc4c3C[C@@H]2C1=O | Compound metabolized
